Measured values: US12458661B2, “Selenium disulfide compositions for use in treating meibomian gland dysfunction” (priority 2016, dated 2025)

Assay: Aggregation of SeS2 on contact with aqueous medium
Format: physicochemical
Description: Contacting SeS2 with aqueous medium causes immediate and spontaneous aggregation, such that SeS2 particles with an average size of 5 to 10 microns will form large aggregates of 50 to 500 microns average size. […] Surfactants and various suspending agents are required to stabilize SeS2 suspension in liquid and semi-solid dosage forms in order to enable its topical application.
Selenium disulfide forms agglomerates under aqueous conditions. Contacting selenium disulfide with aqueous medium causes immediate and spontaneous aggregation, causing selenium disulfide particles, with an initial average diameter of 5 to 10 μm, to aggregate into large clumps of 50 to 500 μm average diameter.

S=[Se]=S [SeS2, selenium disulfide]
Average size of aggregates formed on contact with aqueous medium (SeS2 particles of initial average size 5 to 10 microns): 50 to 500 microns
Average diameter of clumps formed on contact with aqueous medium (initial average diameter 5 to 10 μm): 50 to 500 μm
